Laboratory results reported in US12503440B2, “Nitroxoline derivative, preparation method therefor, and use thereof” (Jiangsu Yahong Meditech Co., Ltd., priority 2020, dated 2025).
≈ marks a conversion by molar mass, not a printed value.

Columns and labels:
Format in all cases: cell-based
Escherichia coli = assay: Bacteriostatic activity, micro broth dilution MIC (CLSI); conditions: 20 hours; for MIC50 / MIC90: clinical strains (carbapenem-resistant), CAMHB; for MIC50: read-out: Escherichia coli Clinical strain MIC50; for MIC90: read-out: Escherichia coli Clinical strain MIC90; for MIC: standard strain ATCC25922, CAMHB
Method: (§1) The purpose of this test is to determine the bacteriostatic activity of the compounds of the present invention against a representative panel of strains (Gram-negative bacteria: […] ATCC 25922, Acinetobacter baumannii ATCC 19606; Gram-positive bacteria: Staphylococcus aureus ATCC29213). Bacteriostatic activity was determined by minimum inhibitory concentration (MIC), MIC50, MIC90. This test was entrusted to Shanghai Junj Lab Co., Ltd. Except for the test drugs, all other test materials were provided by Shanghai Junj Lab Co., Ltd.
(§2) The tested bacteria were several strains of clinically isolated carbapenem-resistant Escherichia coli, several strains of carbapenem-resistant Acinetobacter baumannii, several strains of methicillin-resistant Staphylococcus aureus, and several strains of sensitive Staphylococcus aureus. Duplicate strains isolated from the same patient were eliminated. There were also three quality control strains Escherichia coli ATCC 25922, Acinetobacter baumannii ATCC 19606, and Staphylococcus aureus ATCC 29213. The activity test of each compound was carried out on one or more strains of each of the above test bacteria.
(§3) According to the recommendations of relevant documents of the American Clinical and Laboratory Standards Institute (CLSI), the micro broth dilution method was used to determine the MIC of the compounds of the present invention against clinically isolated strains. The culture solution free of drug was used as the test bacteria positive control, the culture solution free of bacterial solution was used as the drug negative control, and the culture solution free of drug solution and bacterial solution was used as the blank control. • 4.1 Formulation of antibacterial drug: All the compounds of the present invention were dissolved in DMSO. The drug concentration range was 128 mg/L-0.06 mg/L. Specific method: The compounds of the present invention were successively diluted by 1:1 with DMSO to obtain an intermediate series with a range of 25600 mg/L-12.5 mg/L. 30 μL of solution from each tube of the intermediate series of each compound was added to a 3 mL/tube series of single broth tube, and mixed well to obtain an intermediate series with a range of 256 mg/L to 0.125 mg/L. The diluted series solution was added to the drug susceptibility plate line by line, 50 μL of solution per well. All ranges became investigated ranges after being mixed with an equal volume of bacterial solution: 128-0.06 mg/L. • 4.2 Culture medium: The drug susceptibility test used cation adjusted Mueller-Hinton broth (CAMHB). • 4.3 Amount of inoculum: The test bacteria cultured overnight were adjusted to 0.5 McFarland turbidity by the direct colony suspension method, and diluted 100 folds, the final inoculum amount was 10^5 CFU/mL. • 4.4 Culture conditions: The test bacteria were cultured at 35±2° C. for 20 hours in air. 5. Interpretation and Judgment of Results
(§4) The drug susceptibility test results were interpretated by reference to CLSI 2019 edition M100 29th edition criteria.
(§5) The results of drug susceptibility test were statistically analyzed by WHONET version 5.6 software.
(§6) The culture solution free of bacterial solution was used as the drug negative control, and the culture solution free of drug solution and bacterial solution was used as the blank control, wherein no bacteria grew in both solutions.

Staphylococcus aureus = assay: as above; conditions: 20 hours; for MIC50 / MIC90: clinical strains (methicillin-resistant and sensitive), CAMHB; for MIC50: read-out: Staphylococcus aureus Clinical strain MIC50; for MIC90: read-out: Staphylococcus aureus Clinical strain MIC90; for MIC: standard strain ATCC29213, CAMHB
Method: as §1, §2, §3, §4, §5, §6

Acinetobacter baumannii = assay: as above; conditions: 20 hours; for MIC50 / MIC90: clinical strains (carbapenem-resistant), CAMHB; for MIC50: read-out: Acinetobacter baumannii Clinical strain MIC50; for MIC90: read-out: Acinetobacter baumannii Clinical strain MIC90; for MIC: standard strain ATCC19606, CAMHB
Method: as §1, §2, §3, §4, §5, §6

[1] = tested on: Prostate cancer cell line LNcaP Clone FGC; assay: Inhibitory activity on cancer cells, CellTiter-Glo viability, 72 h; conditions: Homo sapiens
Source text: (§7) • HUVEC (purchased from Allcells Biological Technology (Shanghai) Co., Ltd.); UM-UC-3 (ATCC); LNCaP Clone FGC (ATCC); RM-1 (purchased from Nanjing Cobioer Biosciences Co., Ltd.) 2. Reagents • Endothelial cell complete medium (Allcells, H-004) • Medium RPMI1640 (ATCC, 30-2001) • Medium EMEM (ATCC, 30-2003) • Medium DMEM (Gibco, 12430-054) • Fetal bovine serum (Gibco, 10091148) • Penicillin-streptomycin double anti-body (Gibco, S110JV) • DPBS (Gibco, 14190-144) • CellTiter-Glo® kit (Promega, G7573) • Trypsin (0.25%), phenol red (Gibco, 25200-056) • DMSO (Sigma, D2650) 3. Instruments • Biological safety cabinet (Suzhou Antai Airtech Co., Ltd., BSC-1300A II) • Inverted microscope (Nikon, CKX53) • Automated cell counter (Life Technologies, countess II) • Multifunctional microplate reader (Biotek, H1FM) • Shaker (Hangzhou Allsheng Instruments Co., Ltd., OS-100) • GraphPad Prism 5.0 software • XLFIT 5.3 (Inforstack Shanghai Co., Ltd.) 4. Test Method
(§8) In this test method, the following experiments were carried out in a biological safety cabinet, and the specific steps are as follows: • (1) On the first day, the cells were seeded in a 96-well plate, and the previous medium was poured off. 5 mL of DPBS was added to wash the cells, and then removed by a pipette. Then, 1 mL of trypsin (0.25%) was added, and the plate was placed in a cell culture incubator at 37° C., 5% CO2 for digestion, and taken out after about 2 to 5 minutes. New corresponding medium was added, and pipetted to resuspend the cells evenly, and the cells were then counted with an automated cell counter.
(§9) The digestion was observed using an inverted microscope.
(§10) Regarding to HUVEC, the medium used was endothelial cell complete medium; regarding to UM-UC-3, the medium used was 89v % EMEM+10v % fetal bovine serum+1 v % penicillin-streptomycin double anti-body; regarding to LNcaP Clone FGC, the medium used was 89v % RPM11640+10v % fetal bovine serum+1 v % penicillin-streptomycin double anti-body; and regarding to RM-1, the medium used was 89v % DMEM+10v % fetal bovine serum+1v % penicillin-streptomycin double anti-body. • (2) HUVEC cells were seeded in columns 1 to 11 of a 96-well plate (Corning, Cat. No. 3610) at a density of 2000 cells per well in 100 μL of medium, and the medium free of cell was added to the wells of column 12. The other three types of cells were also seeded, wherein UM-UC-3 and RM-1 cells were seeded at a density of 3000 cells per well, and LNCap Clone FGC cells were seeded at a density of 5000 cells per well. Then, the plate was placed in an incubator at 37° C., 5% CO2 for 24 hours. • (3) On the second day, the compounds of the present invention and the reference drug nitroxoline (obtained according to the preparation method disclosed in the prior art) were diluted in gradient (2.5 folds, started at 100 μmol) to obtain 8 dose points (there were a total of 8 columns of wells; the first column of wells had the highest concentration, the concentration decreased in turn, and the last column of wells had the lowest concentration). 10 uL of the compound diluted in gradient was added to the 100 μL of cells in column 1 to column 10 with an 8-channel pipette. 10 μL of the corresponding medium containing 0.33v % DMSO was added to column 11 and column 12. The plate was incubated in an incubator at 37° C., 5% CO2 for 72 hours (note: column 11 was used as MAX well with cells and no compounds; and column 12 was used as MIN well with no cells and no compounds). • (4) After treating with the compounds of the present invention for 72 hours, the cell viability detection reagents in the above CellTiter-Glo® kit were added to the 96-well plate at 50 μL per well according to the instructions. […]

[2] = tested on: Bladder cancer cell line UM-UC-3; assay: as above; conditions: Homo sapiens, UMUC3, UM-UC-3, 72 h
Source text: as §7, §8, §9, §10

MIC50 (Escherichia coli) [µg/mL]	MIC90 (Escherichia coli) [µg/mL]	MIC (Escherichia coli) [µg/mL]	MIC50 (Staphylococcus aureus) [µg/mL]	MIC90 (Staphylococcus aureus) [µg/mL]	MIC (Staphylococcus aureus) [µg/mL]	MIC50 (Acinetobacter baumannii) [µg/mL]	MIC90 (Acinetobacter baumannii) [µg/mL]	MIC (Acinetobacter baumannii) [µg/mL]	IC50 [1] [µM]	IC50 [2] [µM]	SMILES
64 (≈ 307 µM)	64 (≈ 307 µM)	64 (≈ 307 µM)	64 (≈ 307 µM)	64 (≈ 307 µM)	64 (≈ 307 µM)						O=[N+]([O-])c1c(F)cc(O)c2ncccc12 [Example 42, 8-hydroxy-6-fluoro-5-nitroquinoline]
64 (≈ 244 µM)	128 (≈ 488 µM)	64 (≈ 244 µM)	2 (≈ 7.63 µM)	4 (≈ 15.3 µM)	4 (≈ 15.3 µM)	64 (≈ 244 µM)	128 (≈ 488 µM)	32 (≈ 122 µM)			CCOC(=O)c1cnc2c(O)ccc([N+](=O)[O-])c2c1 [Example 32, ethyl 8-hydroxy-5-nitroquinoline-3-carboxylate]
16 (≈ 74.4 µM)	32 (≈ 149 µM)	16 (≈ 74.4 µM)	16 (≈ 74.4 µM)	16 (≈ 74.4 µM)	16 (≈ 74.4 µM)	32 (≈ 149 µM)	32 (≈ 149 µM)	16 (≈ 74.4 µM)			N#Cc1ccnc2c(O)ccc([N+](=O)[O-])c12 [Example 27, 4-cyano-5-nitroquinolin-8-ol]
16 (≈ 69.5 µM)	16 (≈ 69.5 µM)		4 (≈ 17.4 µM)	4 (≈ 17.4 µM)		8 (≈ 34.7 µM)	32 (≈ 139 µM)				O=[N+]([O-])c1c(C2CC2)cc(O)c2ncccc12 [Example 34, 8-hydroxy-6-cyclopropyl-5-nitroquinoline]
8 (≈ 27.7 µM)	8 (≈ 27.7 µM)	8 (≈ 27.7 µM)	64 (≈ 221 µM)	64 (≈ 221 µM)	32 (≈ 111 µM)						CCN(CC)C(=O)c1cnc2c(O)ccc([N+](=O)[O-])c2c1 [Example 40, N,N-diethyl-8-hydroxy-5-nitroquinoline-3-carboxamide]
									3.8	5	O=[N+]([O-])c1ccc(O)c2nccc(-c3ccncc3)c12 [Example 14, 5-nitro-4-(pyridin-4-yl)quinolin-8-ol]
4 (≈ 19.2 µM)	8 (≈ 38.4 µM)	8 (≈ 38.4 µM)	4 (≈ 19.2 µM)	4 (≈ 19.2 µM)		8 (≈ 38.4 µM)	16 (≈ 76.9 µM)				O=[N+]([O-])c1cc(F)c(O)c2ncccc12 [Example 1, 7-fluoro-5-nitroquinolin-8-ol]
										3	O=[N+]([O-])c1ccc(O)c2nccc(N3CCNCC3)c12 [Example 10, 5-nitro-4-(piperazin-1-yl)quinolin-8-ol]
